Results published in patent US20030129629A1, “Methods and compositions for the identification, assessment, prevention, and therapy of human cancers” (Millennium Pharmaceuticals, Inc., priority 2000, published 2003).
Several values for one entry are separate records, joined by “and”; a condition that tells them apart may be missing. Identical values can stand only once. Like-named read-outs stand apart in the source and are kept apart here.

System: 60 cancer cell lines (NCI 60 cancer cell line series)
Assay: NCI-DTP in vitro cancer screen, sulforhodamine B (SRB) growth inhibition, 48 hour exposure
Format: cell-based, human
Protocol: Cancer Cell Line Preparation. Sixty cancer cell lines were obtained from the National Cancer Institute Developmental Therapeutics Program (NCI-DTP). Procedures for growing cells and testing compounds have been described previously (Scudiero et al., Cancer Res. 1988, 48:4827-4833; Stinson et al., Anticancer Res.; Myers et al., Electrophoresis 1997, 18:647-653). Cells are plated on day 0 at a density individualized for each cell line so that they will generally be sub-confluent at the end of the assay period. On day 1, a compound is added in the format for a duplicate-well, 5-dose, ten-fold interval dose response study.
No-drug, no-cell and no-growth controls are included. On day 3 the cells are processed for staining with sulforhodamine B (SRB), which reflects the amount of cell mass present at the end of a 48 hour exposure to the test agent. From dose response curves based on the SRB data, various parameters can be determined. […] More precisely, the quantity used in the calculation to be described is the potency measure −log{GI50}.
Activity database (A). […] This subset of compounds was selected from the larger 23,000 compound database available from the DTP. The compounds were selected on the basis of their known mechanism of action and chemical structure. The average potency −log{GI50} was extracted from the comma-delimited text files available through the Web at http://www.nci.nih.gov/intra/lmp/jnwbio.html. Subsequently, these −log{GI50} values were inspected manually and classified as indicating either Low, Medium or High sensitivity to each compound.

Sc1ncnc2nc[nH]c12 [6-mercaptopurine]
classification of cell line as Low(1), Medium(2), High(3) sensitivity to compound (Breast BT-549 CL5013): 1 | classification of cell line as Low(1), Medium(2), High(3) sensitivity to compound (Breast HS-578T CL5006): 1 | classification of cell line as Low(1), Medium(2), High(3) sensitivity to compound (Breast MCF7(I) CL5001): 2 | classification of cell line as Low(1), Medium(2), High(3) sensitivity to compound (Breast MCF7/ADRr CL5002): 2 | classification of cell line as Low(1), Medium(2), High(3) sensitivity to compound (Breast MDA-MB-231 CL5005): 1 | classification of cell line as Low(1), Medium(2), High(3) sensitivity to compound (Breast MDA-MB-435 CL5011): 2 | classification of cell line as Low(1), Medium(2), High(3) sensitivity to compound (Breast MDA-N CL5012): 2 | classification of cell line as Low(1), Medium(2), High(3) sensitivity to compound (Breast T-47D CL5014): 2 | classification of cell line as Low(1), Medium(2), High(3) sensitivity to compound (CNS SF-268 CL12014): 2 | classification of cell line as Low(1), Medium(2), High(3) sensitivity to compound (CNS SF-295 CL12015): 2 | classification of cell line as Low(1), Medium(2), High(3) sensitivity to compound (CNS SF-539 CL12016): 2 | classification of cell line as Low(1), Medium(2), High(3) sensitivity to compound (CNS SNB-19 CL12002): 1 | classification of cell line as Low(1), Medium(2), High(3) sensitivity to compound (CNS SNB-75(I) CL12005): 2 | classification of cell line as Low(1), Medium(2), High(3) sensitivity to compound (CNS U251(I) CL12009): 2 | classification of cell line as Low(1), Medium(2), High(3) sensitivity to compound (Colon COLO-250 CL4010): 2 | classification of cell line as Low(1), Medium(2), High(3) sensitivity to compound (Colon HCC-2998 CL4002): 2 | classification of cell line as Low(1), Medium(2), High(3) sensitivity to compound (Colon HCT-15 CL4015): 2 | classification of cell line as Low(1), Medium(2), High(3) sensitivity to compound (Colon HCT-116 CL4003): 2 | classification of cell line as Low(1), Medium(2), High(3) sensitivity to compound (Colon HT29(I) CL4001): 2 | classification of cell line as Low(1), Medium(2), High(3) sensitivity to compound (Colon KM12 CL4017): 2 | classification of cell line as Low(1), Medium(2), High(3) sensitivity to compound (Colon SW-620 CL4009): 2 | classification of cell line as Low(1), Medium(2), High(3) sensitivity to compound (Leukemia CCRF-CEM(I) CL7003): 3 | classification of cell line as Low(1), Medium(2), High(3) sensitivity to compound (Leukemia HL-60(I) CL7008): 2 | classification of cell line as Low(1), Medium(2), High(3) sensitivity to compound (Leukemia K562(I) CL7005): 3 | classification of cell line as Low(1), Medium(2), High(3) sensitivity to compound (Leukemia MOLT-4 CL7006): 2 | classification of cell line as Low(1), Medium(2), High(3) sensitivity to compound (Leukemia RPMI-8226(I) CL7010): 2 | classification of cell line as Low(1), Medium(2), High(3) sensitivity to compound (Leukemia SR CL7019): 3 | classification of cell line as Low(1), Medium(2), High(3) sensitivity to compound (Melanoma LOX IMVI CL10001): 3 | classification of cell line as Low(1), Medium(2), High(3) sensitivity to compound (Melanoma M14 CL10014): 3 | classification of cell line as Low(1), Medium(2), High(3) sensitivity to compound (Melanoma MALME-3M CL10002): 2 | classification of cell line as Low(1), Medium(2), High(3) sensitivity to compound (Melanoma SK-MEL-2 CL10005): 2 | classification of cell line as Low(1), Medium(2), High(3) sensitivity to compound (Melanoma SK-MEL-5 CL10007): 2 | classification of cell line as Low(1), Medium(2), High(3) sensitivity to compound (Melanoma SK-MEL-28 CL10008): 1 | classification of cell line as Low(1), Medium(2), High(3) sensitivity to compound (Melanoma UACC-62 CL10020): 2 | classification of cell line as Low(1), Medium(2), High(3) sensitivity to compound (Melanoma UACC-257 CL10021): 1 | classification of cell line as Low(1), Medium(2), High(3) sensitivity to compound (NSCLC A549/ATCC CL1004): 1 | classification of cell line as Low(1), Medium(2), High(3) sensitivity to compound (NSCLC EKVX CL1008): 1 | classification of cell line as Low(1), Medium(2), High(3) sensitivity to compound (NSCLC HOP-62 CL1026): 2 | classification of cell line as Low(1), Medium(2), High(3) sensitivity to compound (NSCLC HOP-92 CL1029): 2 | sensitivity classification Low(1)/Medium(2)/High(3) (NSCLC NCI-H23(I) CL1001): 2 | classification of cell line as Low(1), Medium(2), High(3) sensitivity to compound (NSCLC NCI-H226 CL1013): 1 | sensitivity classification Low(1)/Medium(2)/High(3) (NSCLC NCI-H332M CL1017): 2 | sensitivity classification Low(1)/Medium(2)/High(3) (NSCLC NCI-H460 CL1021): 2 | sensitivity classification Low(1)/Medium(2)/High(3) (NSCLC NCI-H522 CL1003): 2 | sensitivity classification Low(1)/Medium(2)/High(3) (Ovarian IGROV1 CL6010): 2 | sensitivity classification Low(1)/Medium(2)/High(3) (Ovarian OVCAR-3 CL6001): 3 | sensitivity classification Low(1)/Medium(2)/High(3) (Ovarian OVCAR-4 CL6002): 2 | sensitivity classification Low(1)/Medium(2)/High(3) (Ovarian OVCAR-5 CL6003): 2 | sensitivity classification Low(1)/Medium(2)/High(3) (Ovarian OVCAR-8 CL6005): 2 | sensitivity classification Low(1)/Medium(2)/High(3) (Ovarian SK-OV-3 CL6011): 3 | sensitivity classification Low(1)/Medium(2)/High(3) (Prostate DU-145 CL11003): 2 | sensitivity classification Low(1)/Medium(2)/High(3) (Prostate PC-3(I) CL11001): 2 | sensitivity classification Low(1)/Medium(2)/High(3) (Renal 786-0 CL9018): 2 | sensitivity classification Low(1)/Medium(2)/High(3) (Renal A498 CL9013): 1 | sensitivity classification Low(1)/Medium(2)/High(3) (Renal ACHN CL9023): 2 | sensitivity classification Low(1)/Medium(2)/High(3) (Renal CAKI-1 CL9015): 2 | sensitivity classification Low(1)/Medium(2)/High(3) (Renal RXF-393 CL9016): 1 | sensitivity classification Low(1)/Medium(2)/High(3) (Renal SN12C CL9008): 1 | sensitivity classification Low(1)/Medium(2)/High(3) (Renal TK10 CL9024): 2 | sensitivity classification Low(1)/Medium(2)/High(3) (Renal UO-31 CL9004): 2

Nc1ccn([C@@H]2O[C@H](CO)[C@@H](O)[C@@H]2O)c(=O)n1 [AraC]
classification of cell line as Low(1), Medium(2), High(3) sensitivity to compound: 3 and 2 and 1 | sensitivity classification Low(1)/Medium(2)/High(3): 3 and 2 and 1
